Assay results from paper PMC3022373 (Journal of medicinal chemistry, 2010).

Target: T1, hiCE (Homo sapiens, UniProt O00748)
T1 sequence (O00748 27-559): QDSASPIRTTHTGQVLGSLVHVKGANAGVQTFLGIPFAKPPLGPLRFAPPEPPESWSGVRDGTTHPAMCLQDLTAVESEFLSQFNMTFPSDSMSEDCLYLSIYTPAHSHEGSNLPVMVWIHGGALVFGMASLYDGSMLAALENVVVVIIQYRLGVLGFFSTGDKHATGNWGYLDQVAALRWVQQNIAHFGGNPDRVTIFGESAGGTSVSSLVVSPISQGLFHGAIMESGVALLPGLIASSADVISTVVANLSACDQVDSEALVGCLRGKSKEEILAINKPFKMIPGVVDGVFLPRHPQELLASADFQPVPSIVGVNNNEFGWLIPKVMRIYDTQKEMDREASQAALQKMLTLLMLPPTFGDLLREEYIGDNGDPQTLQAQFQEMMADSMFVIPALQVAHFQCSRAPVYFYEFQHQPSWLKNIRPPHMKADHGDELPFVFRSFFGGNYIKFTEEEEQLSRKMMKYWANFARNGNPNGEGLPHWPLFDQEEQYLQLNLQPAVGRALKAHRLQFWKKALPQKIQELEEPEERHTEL
Format: biochemical

Row | SMILES | selectivity in favor of hiCE inhibition versus hCE1
1 | O=C(C(=O)c1ccccn1)c1cccc(NC(=O)c2ccc(Cl)cc2Cl)c1 [15d] | ≥ 100 fold
2 | O=C(Nc1cccc(C(=O)C(=O)c2ccccn2)c1)c1ccc(C(F)(F)F)cc1 [15f] | ≥ 100 fold
